Test results taken from PubChem BioAssay (NCI).
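Protocol summary: plate cells (96-well), add compound at 5 concentrations, incubate 48 h, interpolate endpoints linearly. Abbreviation: GI50, concentration required for 50% inhibition of growth. At the TGI there is no net growth.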

Columns and labels:
Test in all cases: growth of human tumour cells (NCI), 48 h
[1] = tested on: 786-0 renal
[2] = tested on: A549 NSCLC
[3] = tested on: ACHN renal
[4] = tested on: BT-549 breast
[5] = tested on: CAKI-1 renal
[6] = tested on: CCRF-CEM leukemia
[7] = tested on: COLO 205 colon
[8] = tested on: EKVX NSCLC
[9] = tested on: HCC-2998 colon
[10] = tested on: HCT-116 colon
[11] = tested on: HCT-15 colon
[12] = tested on: HL-60(TB) leukemia
[13] = tested on: HOP-62 NSCLC
[14] = tested on: HOP-92 NSCLC
[15] = tested on: HT29 colon
[16] = tested on: IGROV1 ovarian
[17] = tested on: K-562 leukemia
[18] = tested on: KM12 colon
[19] = tested on: LOX IMVI melanoma
[20] = tested on: M14 melanoma
[21] = tested on: MDA-MB-231 breast
[22] = tested on: MDA-MB-435
[23] = tested on: MOLT-4 leukemia
[24] = tested on: NCI-H226 lung
[25] = tested on: NCI-H23 lung
[26] = tested on: NCI-H460 lung
[27] = tested on: NCI-H522 lung
[28] = tested on: NCI/ADR-RES ovarian
[29] = tested on: OVCAR-8 ovarian
[30] = tested on: PC-3 prostate
[31] = tested on: RPMI-8226 leukemia
[32] = tested on: RXF 393 renal
[33] = tested on: SF-268 CNS
[34] = tested on: SF-295 CNS
[35] = tested on: SK-MEL-2 melanoma
[36] = tested on: SK-MEL-5 melanoma
[37] = tested on: SK-OV-3 ovarian
[38] = tested on: SNB-75 CNS
[39] = tested on: SR leukemia
[40] = tested on: T-47D breast
[41] = tested on: U251 CNS
[42] = tested on: UACC-62 melanoma
[43] = tested on: UO-31 renal

`COc1ccc(/C=C2\CN(C(=O)C(Cl)Cl)C/C(=C\c3ccc(OC)c(OC)c3)C2=O)cc1OC` gave a GI50 [1] of 326 nM, a TGI [1] of 1190 nM and a GI50 [2] of 1280 nM. The TGI [2] was > 100000 nM, the GI50 [3] was 165 nM and the TGI [3] was 381 nM. For the same molecule, the GI50 [4] was 535 nM, the TGI [4] was 2980 nM and the GI50 [5] was 368 nM. The TGI [5] was 1980 nM, the GI50 [6] was 34.1 nM and the TGI [6] was > 100000 nM. The GI50 [7] was 307 nM, the TGI [7] was 1600 nM and the GI50 [8] was 366 nM. For the same molecule, the TGI [8] was 1870 nM, the GI50 [9] was 390 nM and the TGI [9] was 1440 nM. It also gave a GI50 [10] of 30.6 nM, a TGI [10] of 103 nM and a GI50 [11] of 69 nM. It also gave a TGI [11] of 446 nM, a GI50 [12] of 221 nM and a TGI [12] of 711 nM. The GI50 [13] was 883 nM, the GI50 [14] was 532 nM and the TGI [14] was 3790 nM. It also gave a GI50 [15] of 78.1 nM, a GI50 [16] of 321 nM and a TGI [16] of 1750 nM. For the same molecule, the GI50 [17] was 36.6 nM, the TGI [17] was > 100000 nM and the GI50 [18] was 98.7 nM. It also gave a TGI [18] of 332 nM, a GI50 [19] of 28.2 nM and a TGI [19] of 96.5 nM. For the same molecule, the GI50 [20] was 92.6 nM, the TGI [20] was 356 nM and the GI50 [21] was 344 nM. For the same molecule, the TGI [21] was 1390 nM, the GI50 [22] was 52.8 nM and the TGI [22] was 265 nM. The GI50 [23] was 135 nM, the TGI [23] was > 100000 nM and the GI50 [24] was 430 nM. The TGI [24] was 1720 nM, the GI50 [25] was 410 nM and the TGI [25] was 1790 nM. It also gave a GI50 [26] of 371 nM, a TGI [26] of 1720 nM and a GI50 [27] of 231 nM. For the same molecule, the TGI [27] was 697 nM, the GI50 [28] was 86.4 nM and the TGI [28] was > 67500 nM. The GI50 [29] was 49.5 nM, the TGI [29] was > 100000 nM and the GI50 [30] was 301 nM. For the same molecule, the TGI [30] was 2400 nM, the GI50 [31] was 30.6 nM and the TGI [31] was 155 nM. For the same molecule, the GI50 [32] was 209 nM, the TGI [32] was 492 nM and the GI50 [33] was 2420 nM. The TGI [33] was > 100000 nM, the GI50 [34] was 243 nM and the TGI [34] was 803 nM. The GI50 [35] was 1850 nM, the TGI [35] was > 100000 nM and the GI50 [36] was 199 nM. For the same molecule, the TGI [36] was 540 nM, the GI50 [37] was 2460 nM and the TGI [37] was > 100000 nM. The GI50 [38] was 651 nM, the TGI [38] was > 100000 nM and the GI50 [39] was 35.2 nM. The TGI [39] was > 100000 nM, the GI50 [40] was 361 nM and the TGI [40] was > 100000 nM. It also gave a GI50 [41] of 40.5 nM, a TGI [41] of 1120 nM and a GI50 [42] of 185 nM. The TGI [42] was 549 nM, the GI50 [43] was 184 nM and the TGI [43] was 423 nM.
